One series can be described thus: in vitro. The settings on record: human.
A further series has as its system YFV 17D strain. The series is described as follows: microbe, parasite or virus in culture. Format: cell-based, yellow fever virus.
The next series addresses protease for YFV (Yellow fever virus, UniProt P03314). The class given is biochemical.
The next series deals with polymerase for YFV (Yellow fever virus, UniProt P03314). The class given is biochemical.
Setting [1] is: Yellow fever virus, Huh-7, read-out: EC50 (Neutral Red).
Where [2] appears, read: Yellow fever virus, Huh-7, read-out: EC50 (Visual).

Read-outs that look alike come from different tables or passages of the source.

protease for YFV, sequence (P03314 1485-2107 limits assumed): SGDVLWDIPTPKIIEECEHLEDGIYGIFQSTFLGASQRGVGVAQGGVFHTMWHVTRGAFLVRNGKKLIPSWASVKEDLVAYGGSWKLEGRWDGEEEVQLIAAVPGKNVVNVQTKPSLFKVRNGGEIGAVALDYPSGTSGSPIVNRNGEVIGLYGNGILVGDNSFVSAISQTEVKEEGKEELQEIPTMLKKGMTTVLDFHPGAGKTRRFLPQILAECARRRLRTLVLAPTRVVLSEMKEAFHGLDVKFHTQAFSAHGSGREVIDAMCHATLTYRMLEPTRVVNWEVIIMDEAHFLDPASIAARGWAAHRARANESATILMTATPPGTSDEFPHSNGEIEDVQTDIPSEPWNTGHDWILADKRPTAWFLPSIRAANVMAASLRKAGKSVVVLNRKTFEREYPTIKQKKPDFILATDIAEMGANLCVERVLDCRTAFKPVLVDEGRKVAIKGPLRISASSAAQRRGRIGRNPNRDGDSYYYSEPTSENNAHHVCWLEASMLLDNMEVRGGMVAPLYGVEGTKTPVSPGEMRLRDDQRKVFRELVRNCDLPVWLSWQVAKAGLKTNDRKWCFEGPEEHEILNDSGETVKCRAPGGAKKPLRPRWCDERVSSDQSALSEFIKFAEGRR
protease for YFV, sequence (P03314 1355-1484 partner limits assumed): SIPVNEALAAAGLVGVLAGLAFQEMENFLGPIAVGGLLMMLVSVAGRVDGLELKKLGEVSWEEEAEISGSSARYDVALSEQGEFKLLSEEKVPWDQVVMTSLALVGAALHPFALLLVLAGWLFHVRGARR
polymerase for YFV, sequence (P03314 2507-3411 limits assumed): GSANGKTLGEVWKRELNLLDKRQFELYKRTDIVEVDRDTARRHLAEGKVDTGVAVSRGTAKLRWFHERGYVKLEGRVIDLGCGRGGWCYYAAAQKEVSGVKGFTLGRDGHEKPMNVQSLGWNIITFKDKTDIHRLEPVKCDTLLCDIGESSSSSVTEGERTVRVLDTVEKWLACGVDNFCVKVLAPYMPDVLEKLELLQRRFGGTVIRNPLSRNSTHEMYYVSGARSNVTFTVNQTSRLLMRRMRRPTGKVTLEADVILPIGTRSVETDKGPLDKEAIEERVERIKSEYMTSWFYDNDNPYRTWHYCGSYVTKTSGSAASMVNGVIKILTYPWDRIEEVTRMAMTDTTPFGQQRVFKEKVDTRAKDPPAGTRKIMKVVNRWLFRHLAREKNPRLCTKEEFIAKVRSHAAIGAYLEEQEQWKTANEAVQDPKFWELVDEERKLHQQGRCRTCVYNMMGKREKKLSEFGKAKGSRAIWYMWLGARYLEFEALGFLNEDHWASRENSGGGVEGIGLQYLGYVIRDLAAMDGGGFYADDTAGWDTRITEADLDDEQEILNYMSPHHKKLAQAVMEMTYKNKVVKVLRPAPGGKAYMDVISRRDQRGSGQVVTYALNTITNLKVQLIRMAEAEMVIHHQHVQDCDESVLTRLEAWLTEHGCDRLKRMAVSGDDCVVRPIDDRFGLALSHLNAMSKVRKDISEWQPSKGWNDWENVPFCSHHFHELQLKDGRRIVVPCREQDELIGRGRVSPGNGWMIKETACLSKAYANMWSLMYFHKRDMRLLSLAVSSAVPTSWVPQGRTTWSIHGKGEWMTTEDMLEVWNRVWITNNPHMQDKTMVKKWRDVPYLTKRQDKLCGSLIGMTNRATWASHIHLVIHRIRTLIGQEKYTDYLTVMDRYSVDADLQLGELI

What is called EC50 is the midpoint of the concentration-response curve. On to `Oc1ccc(-c2nc(-c3ccncc3)c(-c3ccc(F)cc3)[nH]2)cc1` [SB202190], for which the CC50 in “in vitro” (CC50 (Neutral Red)) and in the series “in vitro” (CC50 (Visual)) was > 100 µM in each case. Further, the EC50 in the series with YFV 17D strain (setting [1]) and in the series with YFV 17D strain (setting [2]) was > 100 µM each time.

In the case of “N-{4-cyano-5-[(4-fluorophenyl)amino]-1H-pyrazol-3-yl}naphthalene-2-sulfonamide [Compound 11626003]”, on protease for YFV, the “activity against the protease for YFV” value is “not active”. Moreover, the results for the EC50 in the series with YFV 17D strain (read-out: EC50 (Neutral Red)) and in the series on YFV 17D strain (read-out: EC50 (Visual)) were 3.3 µM and 3.2 µM, respectively. In addition, at polymerase for YFV, the “activity against the polymerase for YFV” value is given as “not active”.

In the case of `CCn1nc(C(=O)O)c(=O)c2cc3c(cc21)OCO3` [Cinoxacin], the CC50 in “in vitro” (CC50 (Neutral Red)) and in the series “in vitro” (CC50 (Visual)) was > 100 µM in each case. The EC50 in the series on YFV 17D strain (setting [1]) and with YFV 17D strain (setting [2]) was > 100 µM throughout.

For `O=C1[C@H](CC[C@H](O)c2ccc(F)cc2)[C@@H](c2ccc(O)cc2)N1c1ccc(F)cc1` [Ezetimibe], the CC50 in “in vitro” (CC50 (Neutral Red)) was determined as 29 µM; in “in vitro” (CC50 (Visual)), 32 µM. The EC50 was > 29 µM in the series with YFV 17D strain (setting [1]) and > 32 µM in the series with YFV 17D strain (setting [2]).

In the case of `Fc1ccc([C@@H]2CCNC[C@H]2COc2ccc3c(c2)OCO3)cc1` [Paroxetine], the figures for the CC50 in “in vitro” (CC50 (Neutral Red)) and in “in vitro” (CC50 (Visual)) were 3.1 µM and 3.2 µM, respectively. Besides, the EC50 is > 3.1 µM in the series on YFV 17D strain (setting [1]) and > 3.2 µM in the series with YFV 17D strain (setting [2]).
